In data set [1] the target is T1, Glutamate receptor ionotropic, AMPA (Rattus norvegicus) (UniProt P19491+P19492+P19493+P19490). Description: Positive allosteric modulation at AMPAR in rat primary cortical cells assessed as concentration required for 2 fold increase in AMPA induced current amplitude by FDSS fluorescence assay. Format: cell-based. The following applies: Primary cortical neuron, filed as positive allosteric modulator.

For data set [2], the target named is Glutamate receptor ionotropic AMPA (Homo sapiens, UniProt P42261+P42262+P42263+P48058). Kind of data set: Positive allosteric modulation at AMPAR in HEK293 cells expressing GluA2Q assessed as glutamate induced calcium influx. It counts as cell-based.
Data set [3] concerns the target T1, Glutamate receptor ionotropic, AMPA (Rattus norvegicus). Kind of data set: Positive allosteric modulation at AMPAR in rat primary cortical cells assessed as concentration required for 2 fold increase in AMPA induced current amplitude by FlipR assay. Format: cell-based. The following applies: Primary cortical neuron, filed as positive allosteric modulator.
The target is the same in data set [4]. Kind of data set: Positive allosteric modulation at AMPAR in rat hippocampal assessed as increase in AMPA induced noradrenaline release. Further details: concentration or dose not given beside the values.
Data set [5] concerns the target Glutamate receptor ionotropic AMPA (Homo sapiens) (UniProt P48058+P42263+P42262+P42261). Description: Positive allosteric modulation at AMPAR in HEK293 cells expressing GluA2Q assessed as glutamate induced calcium influx relative to control. Format: cell-based. The following applies: filed as positive allosteric modulator.
Data set [6] concerns Rattus norvegicus. Kind of data set: Cognition enhancing effect in Wistar rat assessed as increase in long-term potentiation of synaptic response at 10 mg/kg, ip pretreated for 1 hr followed by tetanic stimulation and measured for 3 hrs. It counts as functional, organism-based. The following applies: time 4.0 hrs.
Data set [7] concerns Mus musculus. Description: Cognition enhancing effect in CD1 mouse assessed as increase in exploration time for novel object at 1 mg/kg, po after 1 hr by object recognition test (reference value: 40%). It counts as functional.
Data set [8] can be described thus: Toxicity in NMR1 mouse assessed as pro-convulsant effect at 30 mg/kg, po. Format: organism-based. The following applies: in vivo.
The target of data set [9] is T1, Glutamate receptor ionotropic, AMPA (Rattus norvegicus). Kind of data set: Positive allosteric modulation at AMPAR in rat hippocampal assessed as increase in AMPA induced noradrenaline release by measuring concentration required for 2 fold increase in noradrenaline release. The following applies: filed as positive allosteric modulator.
Data set [10] relates to Mus musculus. Description: Cognition enhancing effect in CD1 mouse assessed as increase in exploration time for novel object at 3 mg/kg, po after 1 hr by object recognition test (reference value: 40%). It counts as functional.
For data set [11], the system named is Mus musculus. Kind of data set: Cognition enhancing effect in C57BL/6 mouse assessed as increase in performance of spontaneous alteration at 0.3 mg/kg, ip after 1 hr by T-maze test. Format: functional, organism-based.
The nature of data set [12]: Toxicity in NMR1 mouse assessed as pro-convulsant effect at 100 mg/kg, po. The conditions noted are these: in vivo. It counts as organism-based.
The subject of data set [13] is Mus musculus. Kind of data set: Cognition enhancing effect in C57BL/6 mouse assessed as increase in performance of spontaneous alteration at 0.1 mg/kg, ip after 1 hr by T-maze test. It counts as functional, organism-based.
[14] abbreviates: filed as positive allosteric modulator.

As usually defined, the EC50 is the concentration needed to bring the measured effect to its halfway point. In general, Emax refers to the greatest response seen or fitted, relative to the assay's reference.

Calls of active or inactive are those of the source. The rule behind the calls is not given here.

Regarding `O=S1(=O)NCN(C2CC2)c2ccc(F)cc21`, the EC in data set [1] came to 0.3 µM; in data set [3], 0.2 µM. For the same compound, in data set [2], the EC50 is 0.275 µM. Further, the Activity in [4] (setting [14]) came out at 230%.

`CC1N(C)c2ccc(F)cc2S(=O)(=O)N1C` (centres undefined): the EC50 in [2] was 15.1 µM. Also, in [3], the EC stood at 4.1 µM. For the same compound, in [4] (setting [14]), the Activity came out at 167%.

With `CN1CN(C2CC2)c2ccc(Cl)cc2S1(=O)=O`, the EC50 in [2] was above 100 µM. Moreover, the EC in data set [3] was 13.4 µM.

On to `CC1N(C)c2ccc(Cl)cc2S(=O)(=O)N1C` (centres undefined), for which the EC in [1] was found to be 0.8 µM; in data set [3], 4.3 µM. Besides, the concentration giving a half-maximal response (EC50) in data set [2] was 81.3 µM. For the same compound, the Activity in data set [4] (setting [14]) was found to be 112%.

On to `O=S1(=O)c2cc(Cl)ccc2N(C2CC2)CN1C(F)F`, for which the EC in [1] worked out at 6 µM. Further, the EC50 in data set [2] is above 100 µM. Further, in data set [4] (setting [14]), the Activity was determined as 340%.

With `O=S1(=O)c2cc(F)ccc2N(C2CC2)CN1CF`, the EC50 in [2] is 0.282 µM. In [3], the EC amounted to 0.6 µM. For the same compound, in data set [4] (setting [14]), the Activity is 427%.

Turning to `O=S1(=O)c2cc(F)ccc2N(C2CC2)CN1C(F)F`, the EC50 in [2] was 16.6 µM. Further, in data set [3], the EC came out at 6.9 µM. Besides, the Activity in [4] (setting [14]) came out at 345%.

Take `CN1CN(C2CC2)c2ccc(F)cc2S1(=O)=O`: the EC50 in data set [2] was 57.5 µM. Besides, the EC in [3] worked out at 9.3 µM. Also, the Activity in data set [4] was below 100%.

Regarding `CCN1c2ccc(Cl)cc2S(=O)(=O)N(C)C1C` (centres undefined), the EC50 in data set [2] was 31.6 µM. The EC in data set [3] was determined as 6.2 µM. Besides, the Activity in data set [4] (setting [14]) is 103%.

For the compound `CCN1c2ccc(Cl)cc2S(=O)(=O)N(CC)C1C` (centres undefined), the EC in data set [1] is 12.2 µM. Further, the EC50 in data set [2] is above 100 µM. Besides, the Activity in data set [4] was below 100%.

Turning to `O=S1(=O)NCN(C2CC2)c2ccc(Cl)cc21`, the EC was 0.7 µM in data set [1], 4.5 µM in data set [9] and 2.2 µM in data set [3]. Besides, the EC50 in [2] is 0.794 µM. Moreover, in [5], the Emax amounted to 100%. Also, the result in [6] and in [11] was Active. Moreover, the Activity in [7] is 82%; in [8], “Non-Toxic”; in [10], 79%; in data set [4] (setting [14]), 311%.

`CC1N(C2CC2)c2ccc(Cl)cc2S(=O)(=O)N1C` (centres undefined): in data set [2], the half-maximal effective concentration (EC50) was above 100 µM. Besides, in data set [3], the EC was 65 µM. For the same compound, in [4], the Activity was below 100%.

For the compound `CC1N(C2CC2)c2ccc(Cl)cc2S(=O)(=O)N1CF` (centres undefined), in data set [2], the EC50 is 2.14 µM. Besides, in data set [3], the EC is 2.5 µM. The Activity in data set [4] (setting [14]) was found to be 329%.

Turning to `O=S1(=O)c2cc(Cl)ccc2N(C2CC2)CN1CF`, the EC worked out at 1.5 µM in [1], 5 µM in data set [9] and 2.1 µM in [3]. The Activity result was “Non-Toxic” in data set [12]; 64% in data set [7]; “Non-Toxic” in data set [8]; 78% in data set [10]; 394% in [4] (setting [14]). Further, the EC50 in [2] was 2.19 µM. For the same compound, in data set [5], the Emax was 90%. Also, the result in data set [6] and in data set [13] was Active.

As to `CCN1c2ccc(F)cc2S(=O)(=O)N(C)C1C` (centres undefined), the EC in data set [1] was determined as 1.4 µM. The EC50 in [2] was 8.71 µM. Further, in data set [4] (setting [14]), the Activity came out at 135%.

As to `CCN1C(C)N(C)c2ccc(Cl)cc2S1(=O)=O` (centres undefined), in data set [1], the EC turned out to be 11.2 µM. In addition, the EC50 in data set [2] was above 100 µM. The Activity in [4] is below 100%.

Turning to `CC1N(C2CC2)c2ccc(F)cc2S(=O)(=O)N1C` (centres undefined), the EC50 in data set [2] was above 100 µM. Moreover, in [3], the EC was 70.9 µM. Besides, the Activity in data set [4] is below 100%.

The values above are taken from ChEMBL document CHEMBL5385900, “New insights in the development of positive allosteric modulators of α-amino-3-hydroxy-5-methyl-4-isoxazolepropionic acid (AMPA) receptors belonging to 3,4-dihydro-2H-1,2,4-benzothiadiazine 1,1-dioxides: Introduction of (mono/difluoro)methyl groups at the 2-position of the thiadiazine ring” (Eur J Med Chem, 2023).
